Like-named read-outs stand apart in the source and are kept apart here.
How the values were obtained:
Assay in all cases: NADPH oxidation at […] nm, Michaelis-Menten fit
Type in all cases: biochemical, Aspergillus niger
Details in all cases: 0.2 mM NADPH, HEPES pH 7.0
SrdE = test system: T1, SrdE
T1 construct: cDNA in pET-28a(+), His-tag purified from E. coli

SrdB = test system: T2, SrdB
T2 construct: cDNA in pET-28a(+), His-tag purified from E. coli

XyrB = test system: T3, XyrB
T3 construct: recombinant plasmid from a previous study, His-tag purified from E. coli

Structure (SMILES)	Km (SrdE; read-out: D-xylose / Km)	Km (SrdB; read-out: D-xylose / Km)	Km (XyrB; read-out: D-xylose / Km)	Km (SrdE; read-out: L-arabinose / Km)	Km (SrdB; read-out: L-arabinose / Km)	Km (XyrB; read-out: L-arabinose / Km)
OC1OC[C@@H](O)[C@H](O)[C@H]1O (stereo partly drawn) [D-xylose]	1.1 mM	2.8 mM	3 mM	–	–	–
OC1OC[C@H](O)[C@H](O)[C@H]1O (stereo partly drawn) [L-arabinose]	–	–	–	4.3 mM	4.5 mM	12.3 mM
